Data: US20110129508A1 (priority 2008, published 2011)
Entries after “also recorded” stand apart in the source; their conditions may differ. Read-outs that look alike come from different tables or passages of the source.

Columns and labels:
[1] = male, Wistar (HsdBrlHan WIST), rat, in vivo, ip
[2] = system: rat model of prostate bone cancer pain; assay: animal or person; type: in vivo, Male Wistar rats; settings: for ED50: Rattus norvegicus
[3] = system: rat model of diabetic neuropathic pain; design: species or system rats; settings: in vivo
[4] = system: streptozotocin-induced diabetic neuropathy model of neuropathic pain; settings: rat, in vivo, ip, 2.5 mg/kg
[5] = rat, in vivo

Structure (SMILES) | maximum non-sedating dose [1] | ED50 ([2]; ip) | ED50 ([2]; read-out: ED50 Mean) | antinociception ([2]; rat, in vivo, ip) | reversal of hyperalgesia ([2]; rat, in vivo, ip, 5 mg/kg) | reversal of hyperalgesia [3] | reversal in hyperalgesia [4] | mean rest times [5]
CN1CC[C@]23c4c5ccc(O)c4O[C@H]2[C@@H](O)C=C[C@H]3[C@H]1C5 [morphine] | 5 mg/kg | 0.735 mg/kg | 0.735 mg/kg | dose related antinociception; also recorded: dose related antinociceptive effects | 73% |  |  | 
CCOC(=O)Nc1ccc(NCc2ccc(F)cc2)nc1N [flupirtine] |  | 3.32 mg/kg | 3.32 mg/kg |  |  | 8±8% | over 20% | 943.83 s
